Values after ≈ are worked out from the molar mass of the structure shown.
How the values were obtained:
[1] = test system: S. aureus; test: Broth microdilution MIC, European bacteraemia isolates 2010-2012; assay type: cell-based; details: S. aureus Methicillin-resistant (1,708)
Description: (§1) A total of 2,904 clinical strains responsible for documented bacteremia among unique hospitalized patients in 38 hospitals in 11 European Union countries. Israel, Russia, Turkey and Ukraine were included in this study (2010-2012). Isolates were submitted to a central monitoring laboratory (JMI Laboratories, North Liberty. Iowa. USA), following previously established protocols. Bacterial species identification was performed by using an automated system (Vitek®2; bioMèrieux, Hazelwood, Mo., USA) or conventional biochemical algorithms, as required.
(§2) Isolates were tested for susceptibility by broth microdilution methods following the Clinical and Laboratory Standards Institute (CLSI; M07-A9, 2012) document. Susceptibility testing was performed in cation-adjusted Mueller-Hinton broth (CA-MHB) using dry-form panels manufactured by Thermo Fisher Scientific, formerly TREK Diagnostics Systems/Sensititre (Cleveland. Ohio, USA). These panels provide results equivalent to the CLSI-approved broth microdilution method supplemented with 0.002% polysorbate-80.
(§3) Quality assurance was performed by concurrent testing of CLSI-recommended (M100-S23, 2013) strains: E. faecalis ATCC 29212 and S. aureus ATCC 29213. Interpretation of comparator MIC results was in accordance with published CLSI (M100-S23) and European Committee on Antimicrobial Susceptibility Testing (EUCAST, 2013) criteria.

[2] = test system: Coagulase-negative staphylococci; test: as above; assay type: cell-based, coagulase-negative staphylococci (CoNS); details: Coagulase-negative staphylococci (646)
Description: as §1, §2, §3

[3] = test system: E. faecalis; test: as above; assay type: cell-based, Enterococcus faecalis
Description: as §1, §2, §3

[4] = test system: E. faecium; test: as above; assay type: cell-based, Enterococcus faecium; details: for % Resistant, CLSI / % Susceptible, CLSI: CLSI M100-S23 breakpoints; for % Resistant, EUCAST / % Susceptible, EUCAST: EUCAST 2013 breakpoints; for MIC50 / MIC90 / MIC Range: Table 2
Description: as §1, §2, §3

[5] = test system: E. faecalis; test: Broth microdilution MIC, US isolates 2011-2012, blood vs non-blood; assay type: cell-based
Description: (§4) 527 E. faecalis, 176 E. faecium, and 790 BHS (335 S. pyogenes and 455 S. agalactiae) clinical, single patient, non-consecutive isolates were collected in 2011-2012 from 46 sites geographically distributed across the United States. The MICs were determined by broth microdilution testing performed in accordance with CLSI M7 and M100 guidelines. From the resulting database, this analysis focused on the activities of ORI, vancomycin (VAN), daptomycin (DAP), and linezolid (LZD) according to specimen source.

[6] = test system: E. faecium; test: as above; assay type: cell-based
Description: as §4

[7] = test system: S. agalactiae; test: as above; assay type: cell-based
Description: as §4

[8] = test system: S. pyogenes; test: as above; assay type: cell-based
Description: as §4

[9] = test system: MDR SA; test: Microdilution MIC against MDR SA by specimen source; assay type: cell-based, S. aureus
Description: 456 clinical, single-patient, non-consecutive, MDR SA isolates from the known specimen sources collected in 2011-2012 were analyzed. MDR was defined as resistant to ≧3 of the following: erythromycin, clindamycin, gentamicin, levofloxacin, and trimethoprim/sulfamethoxazole. 382 were MRSA and 74 were MSSA. MICs were determined by microdilution testing in accordance with CLSI M7 and M100 guidelines. Although other comparator drugs were tested, this analysis focuses on the activities of ORI, VAN, DAP, and LZD.

[10] = test system: VRE; test: Susceptibility of the subject's blood culture isolate (treatment history); assay type: cell-based
Description: 11, 2013; the plan was for at least 8 weeks of antibiotic therapy.

[11] = E. faecalis (445), CLSI M100-S23 breakpoints
[12] = E. faecalis (445), EUCAST 2013 breakpoints
[13] = E. faecium Vancomycin-resistant (VanA-phenotype) (153)
[14] = E. faecium Vancomycin-susceptible (257)
[15] = Enterococcus faecium, E. faecium Vancomycin-resistant (VanA-phenotype) (153)
[16] = Enterococcus faecium, E. faecium Vancomycin-susceptible (257)

CN[C@H](CC(C)C)C(=O)N[C@H]1C(=O)N[C@@H](CC(N)=O)C(=O)N[C@H]2C(=O)N[C@H]3C(=O)N[C@H](C(=O)N[C@H](C(=O)O)c4cc(O)cc(O)c4-c4cc3ccc4O)[C@H](O)c3ccc(c(Cl)c3)Oc3cc2cc(c3O[C@@H]2O[C@H](CO)[C@@H](O)[C@H](O)[C@H]2O[C@H]2C[C@](C)(N)[C@H](O)[C@H](C)O2)Oc2ccc(cc2Cl)[C@H]1O [Vancomycin, vancomycin]
% Resistant, CLSI ([1]; CLSI M100-S23 breakpoints): 0.0%
% Susceptible, CLSI ([1]; CLSI M100-S23 breakpoints): 100.0%
% Resistant, EUCAST ([1]; EUCAST 2013 breakpoints): 0.0%
% Susceptible, EUCAST ([1]; EUCAST 2013 breakpoints): 100.0%
MIC50 ([1]; Staphylococcus aureus, Table 2): 1 µg/mL (≈ 0.69 µM)
MIC90 ([1]; Staphylococcus aureus, Table 2): 1 µg/mL (≈ 0.69 µM)
MIC Range ([1]; Table 2): 0.25 to 2 µg/mL
% Resistant, CLSI ([2]; CLSI M100-S23 breakpoints): 0.0%
MIC50 ([2]; Table 2): 2 µg/mL (≈ 1.38 µM)
MIC90 ([2]; Table 2): 2 µg/mL (≈ 1.38 µM)
MIC Range ([2]; Table 2): 0.25 to 4 µg/mL
% Resistant, CLSI [3, 11]: 0.9%
% Susceptible, CLSI [3, 11]: 99.1%
% Resistant, EUCAST [3, 12]: 0.9%
% Susceptible, EUCAST [3, 12]: 99.1%
% susceptible ([3]; E. faecalis strains, criteria not stated): 99.1%
MIC50 ([3]; Enterococcus faecalis): 1 µg/mL (≈ 0.69 µM)
MIC90 ([3]; Enterococcus faecalis): 2 µg/mL (≈ 1.38 µM)
% Resistant, CLSI [4, 13]: 100.0%
% Susceptible, CLSI [4, 13]: 0.0%
% Resistant, EUCAST [4, 13]: 100.0%
% Susceptible, EUCAST [4, 13]: 0.0%
% Resistant, CLSI [4, 14]: 0.0%
% Susceptible, CLSI [4, 14]: 100.0%
% Resistant, EUCAST [4, 14]: 0.0%
% Susceptible, EUCAST [4, 14]: 100.0%
MIC50 [4, 15]: > 16 µg/mL
MIC90 [4, 15]: > 16 µg/mL
MIC50 [4, 16]: 1 µg/mL (≈ 0.69 µM)
MIC90 [4, 16]: 1 µg/mL (≈ 0.69 µM)
MIC ([4]; Enterococcus faecium, read-out: MIC values): > 4 µg/mL
MIC Range [4, 13]: >16 µg/mL
MIC Range [4, 14]: 0.5 to 4 µg/mL
MIC90 ([5]; Blood, N 116): 2 µg/mL (≈ 1.38 µM)
MIC90 ([5]; Non-Blood, N 411): 2 µg/mL (≈ 1.38 µM)
MIC90 ([6]; Blood, N 84): > 32 µg/mL
MIC90 ([6]; Non-Blood, N 92): > 32 µg/mL
MIC90 ([7]; Blood, N 100): 0.5 µg/mL (≈ 0.345 µM)
MIC90 ([7]; Non-Blood, N 355): 0.5 µg/mL (≈ 0.345 µM)
MIC90 ([8]; Blood, N 53): 0.25 µg/mL (≈ 0.173 µM)
MIC90 ([8]; Non-Blood, N 282): 0.25 µg/mL (≈ 0.173 µM)
MIC50 ([9]; Blood, n = 108): 0.5 µg/mL (≈ 0.345 µM)
MIC90 ([9]; Blood, n = 108): 1 µg/mL (≈ 0.69 µM)
Mode (MIC) ([9]; Blood, n = 108): 0.5 µg/mL
Range (MIC) ([9]; Blood, n = 108, in µg/mL): 0.5-2
MIC50 ([9]; Respiratory, N = 157): 0.5 µg/mL (≈ 0.345 µM)
MIC90 ([9]; Respiratory, N = 157): 1 µg/mL (≈ 0.69 µM)
Mode (MIC) ([9]; Respiratory, N = 157): 0.5 µg/mL
Range (MIC) ([9]; Respiratory, N = 157): ≦0.25-1
MIC50 ([9]; Skin/Wound, N = 191): 0.5 µg/mL (≈ 0.345 µM)
MIC90 ([9]; Skin/Wound, N = 191): 1 µg/mL (≈ 0.69 µM)
Mode (MIC) ([9]; Skin/Wound, N = 191): 0.5 µg/mL
Range (MIC) ([9]; Skin/Wound, N = 191): ≦0.25-1

CCCCCCCCCCNCCN[C@@]1(C)C[C@H](O[C@H]2[C@H](Oc3c4cc5cc3Oc3ccc(cc3Cl)[C@@H](O)[C@@H](NC(=O)[C@@H](CC(C)C)NC)C(=O)N[C@@H](CC(N)=O)C(=O)N[C@H]5C(=O)N[C@H]3C(=O)N[C@H](C(=O)N[C@H](C(=O)O)c5cc(O)c(CNCP(=O)(O)O)c(O)c5-c5cc3ccc5O)[C@H](O)c3ccc(c(Cl)c3)O4)O[C@H](CO)[C@@H](O)[C@@H]2O)O[C@@H](C)[C@H]1O [televancin]
susceptibility ([10]; 2012 December): resistant

CN(C)c1cc(NC(=O)CNC(C)(C)C)c(O)c2c1C[C@H]1C[C@H]3[C@H](N(C)C)C(O)=C(C(N)=O)C(=O)[C@@]3(O)C(O)=C1C2=O [tigecycline]
susceptibility ([10]; 2012 July): susceptible

Reference: patent US20160206688A1, “METHODS FOR TREATING BACTEREMIA AND OSTEOMYELITIS USING ORITAVANCIN” (THE MEDICINES COMPANY, priority 2013, published 2016)
